{
  "source": "patent US20110144028A1",
  "about": "“MODULATING CELLULAR ELECTROPHYSIOLOGY” (priority 2009, published 2011)",
  "key": {"[1]": {"test_system": "cardiac fibroblasts transfected with AdV-Kv1.3-GFP", "test": "Phase contrast microscopy of cellular morphology of Kv1.3 expressing cardiac fibroblasts", "type": "cell-based, rat", "settings": "cells expressing Kv1.3 after 10^7 PFU/ml AdV-Kv1.3-GFP; phase contrast microscopy (FIG. 8B)", "excerpt": "(§1) Cells: Primary neonatal cardiac cells were obtained from ventricles of 2-3-day-old rat pups. The ventricles were fine minced, dissociated in Ca^2+-free Hank's balanced salt solution (HBSS) supplemented with 0.1%, trypsin and 0.006% pancreatin, and dispersed by triturating.\n(§2) Separation and culture of cardiac myocytes and fibroblasts: The solution of dispersed cells was supplemented with 10% neonatal calf serum to stop enzymatic activity, centrifuged, resuspended in culture medium, pre-plated in large culture flasks, and incubated for two hours to isolate the fibroblast enriched fraction. Fibroblasts were further purified by media exchange within 1 hour after each passage. The myocytes remaining in suspension were collected and plated at 1.5 10^5 cells/cm^2 and grown for five to seven days before experimentation.\n(§3) Transfection: Subconfluent myocyte and fibroblast cultures were transfected with AdV-Kv1.3-GFP or AdV-GFP at 10^6-10^8 PFU/ml. After transfection the cells were cultured in 0-5% serum media with 0, 1, 10 or 100 nM Charybdotoxin (CTx), which is a specific K^+ channel blocker. After three days in culture, the cells were visually monitored and assayed."}, "[2]": {"test_system": "cardiac fibroblasts transfected with AdV-Kv1.3-GFP", "test": "Cell viability and apoptosis with Hoechst nuclei stain in Kv1.3 transfected cardiac fibroblasts", "type": "cell-based, rat", "settings": "for rescue of cells from Kv1.3 induced apoptosis: Kv1.3 transfected fibroblasts, n=3 for each titer, three days in culture", "excerpt": "as §1, §2, §3\nCell Viability and apoptosis: Cells were assayed for viability and apoptosis with Hoechst nuclei stain."}},
  "data": [
    {"substance": "Charybdotoxin", "values": [
      {"measurement": "cellular morphology of the fibroblasts", "setting": "[1]", "result": "maintained normal cellular morphology"},
      {"measurement": "rescue of cells from Kv1.3 induced apoptosis", "setting": "[2]; Charybdotoxin alone (FIG. 7A)", "result": "partially rescued the cells"},
      {"measurement": "rescue of cells from Kv1.3 induced apoptosis", "setting": "[2]; cTx and 5% serum (FIG. 7B)", "result": "partially rescued the cells"},
      {"measurement": "cardiac fibroblast cell viability", "setting": "[2]; cells expressing Kv1.3, addition of Charybdotoxin (FIG. 8)", "result": "rescued"}
    ]}
  ]
}
